From publication PMC3646541 (Nature protocols, 2011)

Test system: four of the six Bcl-2 family proteins
Experiment: Multiplex flow cytometry competition dose-response against F-Bim
Format: binding
Settings: constant 50 nM F-Bim, dose-response series (Fig. 2b)

SMILES: CN(C)CC[C@H](CSc1ccccc1)Nc1ccc(S(=O)(=O)NC(=O)c2ccc(N3CCN(Cc4ccccc4-c4ccc(Cl)cc4)CC3)cc2)cc1[N+](=O)[O-] [ABT-737]
- ability to block F-Bim binding: block F-Bim binding to four of them at relatively low concentrations
